In patent US8389552B2, “(S)-6-(2-(4-(cyclobutylsulfonyl)-1H-imidazol-1-yl)-3-cyclopentylpropanamido)nicotinic acid useful as a glucokinase activator” (Pfizer Inc., priority 2009, dated 2013):
Like-named read-outs stand apart in the source and are kept apart here.

Target: T1, Full-length glucokinase (beta cell isoform) (Homo sapiens, UniProt P35557)
T1 construct: Full-length glucokinase (beta cell isoform) was His-tagged at N-terminus; His tag (N); made in house; host or cells: E. coli BL21(DE3), pBCGK vector
T1 sequence (P35557 1-465): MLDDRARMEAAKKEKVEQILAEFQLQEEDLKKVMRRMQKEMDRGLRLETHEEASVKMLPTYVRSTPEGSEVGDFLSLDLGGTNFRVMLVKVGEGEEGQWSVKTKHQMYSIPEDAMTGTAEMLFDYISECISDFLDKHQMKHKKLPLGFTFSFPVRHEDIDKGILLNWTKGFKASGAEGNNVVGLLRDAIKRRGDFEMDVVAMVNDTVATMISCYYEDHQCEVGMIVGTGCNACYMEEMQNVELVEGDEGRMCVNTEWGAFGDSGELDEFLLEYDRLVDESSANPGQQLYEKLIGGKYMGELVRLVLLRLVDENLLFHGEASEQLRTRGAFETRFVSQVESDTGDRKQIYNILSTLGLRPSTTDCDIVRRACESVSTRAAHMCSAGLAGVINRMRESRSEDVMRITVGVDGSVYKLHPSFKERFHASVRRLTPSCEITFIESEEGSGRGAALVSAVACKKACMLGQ
Experiment: Glucokinase activation assay (PK/LDH-coupled, NADH depletion at 340 nm)
Format: biochemical
Conditions: for Emax: % max activation = (Va/Vo−1)×100 from fit, pH 7.1, read-out: Maximum Activation (%)
Protocol: Full-length glucokinase (beta cell isoform) was His-tagged at N-terminus and purified by a Ni column followed by size exclusion chromatography. A 320 mL column was packed in house using Superdex75 (Amersham Pharmacia, Carlsbad, Calif.) preparation grade resin. Glucose was obtained from Calbiochem (San Diego, Calif.) and other reagents were purchased from Sigma-Aldrich (St. Louis, Mo.).
All assays were performed in a Corning 384-well plate using Spectramax PLUS spectrophotometer (Molecular Devices, Sunnyvale, Calif.) at room temperature. The final assay volume was 40 ∥L. The buffer conditions used in this assay were as follows: 50 mM HEPES, 5 mM glucose, 2.5 mM ATP, 3.5 mM MgCl2, 0.7 mM NADH, 2 mM dithiothreitol, 1 unit/mL pyruvate kinase/lactate dehydrogenase (PK/LDH), 0.2 mM phosphoenolpyruvate, and 25 mM KCl. The buffer pH was 7.1. The test compound in dimethylsulfoxide solution was added to the buffer and mixed by a plate shaker for 7.5 minutes. The final concentration of dimethylsulfoxide introduced into the assay was 0.25%.
Glucokinase was added to the buffer mixture to initiate the reaction in the presence and absence of compound. The reaction was monitored by absorbance at 340 nm due to the depletion of NADH. The initial reaction velocity was measured by the slope of a linear time course of 0-300 seconds. The percentage of maximum activation was calculated by the following equation: % Maximum Activation=(Va/Vo−1)×100; wherein each of Va and Vo is defined as the initial reaction velocity in the presence and absence of the tested compound, respectively.
The glucokinase activities were measured as a function of compound concentrations.

[1] = 5 mM glucose, 2.5 mM ATP, pH 7.1, room temperature, single value or range where N>1, read-out: EC50
[2] = 5 mM glucose, single value or range where N>1

EC50 [1] [µM]	Emax [2] [%]	Structure (SMILES)	EC50 [µM]
4.2 to 4.4	109 to 114	COc1ccc2nc(NC(=O)[C@H](CC3CCOCC3)n3cnc(C(F)(F)F)c3)sc2n1 [Example 78, (S)—N-(5-methoxythiazolo[5,4-b]pyridin-2-yl)-3-(tetrahydro-2H-pyran-4-yl)-2-(4-(trifluoromethyl)-1H-imidazol-1-yl)propanamide]	
> 100		Cc1cnc(NC(=O)[C@H](CC2CCCC2)n2cc(C(=O)N(C)C)cn2)cn1 [Example 73, (S)-1-(3-cyclopentyl-1-(5-methylpyrazin-2-ylamino)-1-oxopropan-2-yl)-N,N-dimethyl-1H-pyrazole-4-carboxamide]	
0.9 to 2.2	57 to 90	CC(C)S(=O)(=O)c1cnn([C@@H](CC2CCCC2)C(=O)Nc2ccncn2)c1 [Example 4, (S)-3-cyclopentyl-2-(4-(isopropylsulfonyl)-1H-pyrazol-1-yl)-N-(pyrimidin-4-yl)propanamide]	
2.9	65	CCS(=O)(=O)c1cnn([C@@H](CC2CCCC2)C(=O)Nc2ccc(C)cn2)c1 [Example 21, (S)-3-cyclopentyl-2-(4-(ethylsulfonyl)-1H-pyrazol-1-yl)-N-(5-methylpyridin-2-yl)propanamide]	
2.8	104	CC(C)(O)C(=O)Nc1ccc(NC(=O)[C@H](CC2CCCC2)n2cnc(C(F)(F)F)c2)nc1 [Example 67, (S)-3-Cyclopentyl-N-[5-(2-hydroxy-2-methyl-propionylamino)-pyridin-2-yl]-2-(4-trifluoromethyl-imidazol-1-yl)-propionamide]	
8	128	Cc1cn([C@@H](CC2CCCC2)C(=O)Nc2ccc(C(=O)O)cn2)nc1C(F)(F)F [Example 95, (S)-6-(3-cyclopentyl-2-(4-methyl-3-(trifluoromethyl)-1H-pyrazol-1-yl)propanamido)nicotinic acid]	
11	125	CCS(=O)(=O)c1cn([C@@H](CC2CCCC2)C(=O)Nc2ccn(C)n2)cn1 [Example 31, (S)-3-cyclopentyl-2-(4-(ethylsulfonyl)-1H-imidazol-1-yl)-N-(1-methyl-1H-pyrazol-3-yl)propanamide]	
5.2	167	CC(C)(O)Cn1ccc(NC(=O)[C@H](CC2CCCC2)n2cnc(C(F)(F)F)c2)n1 [Example 56, (S)-3-cyclopentyl-N-(1-(2-hydroxy-2-methylpropyl)-1H-pyrazol-3-yl)-2-(4-(trifluoromethyl)-1H-imidazol-1-yl)propanamide]	
32	100	CS(=O)(=O)c1cnn([C@@H](CC2CCCC2)C(=O)Nc2ccncn2)c1 [Example 13, (S)-3-cyclopentyl-2-(4-(methylsulfonyl)-1H-pyrazol-1-yl)-N-(pyrimidin-4-yl)propanamide]	
17	84	CC(C)(C(=O)O)c1ccc(NC(=O)[C@H](CC2CCCC2)n2cnc(C(F)(F)F)c2)nc1 [Example 65, (S)-2-(6-(3-cyclopentyl-2-(4-(trifluoromethyl)-1H-imidazol-1-yl)propanamido)pyridin-3-yl)-2-methylpropanoic acid]	
2.6 to 4.2	121 to 140	O=C(Nc1cnc([C@H](O)CO)cn1)[C@H](CC1CCCC1)n1cnc(C(F)(F)F)c1 [Example 50, (S)-3-cyclopentyl-N-(5-((S)-1,2-dihydroxyethyl)pyrazin-2-yl)-2-(4-(trifluoromethyl)-1H-imidazol-1-yl)propanamide]	
0.4	120	Cc1ccc(NC(=O)[C@H](CC2CCCC2)n2cc(C(F)(F)F)nc2C)nc1 [Example 91, (S)-3-cyclopentyl-2-(2-methyl-4-(trifluoromethyl)-1H-imidazol-1-yl)-N-(5-methylpyridin-2-yl)propanamide]	
2.8	123	Cc1ccc(NC(=O)[C@H](CC2CCCC2)n2cc(C(F)(F)F)c(C)n2)nc1 [Example 96, (S)-3-cyclopentyl-2-(3-methyl-4-(trifluoromethyl)-1H-pyrazol-1-yl)-N-(5-methylpyridin-2-yl)propanamide]	
22	120	Cc1cnc(NC(=O)[C@H](CC2CCCC2)n2cnc(S(C)(=O)=O)n2)cn1 [Example 27, (S)-3-cyclopentyl-N-(5-methylpyrazin-2-yl)-2-(3-(methylsulfonyl)-1H-1,2,4-triazol-1-yl)propanamide]	
> 100		CS(=O)(=O)c1cnn([C@@H](CC2CCCC2)C(=O)Nc2ccn(Cc3ccccc3)n2)c1 [Example 12, (S)—N-(1-benzyl-1H-pyrazol-3-yl)-3-cyclopentyl-2-(4-(methylsulfonyl)-1H-pyrazol-1-yl)propanamide]	
> 30		CN(C)C(=O)c1cnn([C@@H](CC2CCCC2)C(=O)Nc2ccn(C)n2)c1 [Example 71, (S)-1-(3-cyclopentyl-1-(1-methyl-1H-pyrazol-3-ylamino)-1-oxopropan-2-yl)-N,N-dimethyl-1H-pyrazole-4-carboxamide]	
2.9 to 3.5	147 to 166	Cn1ccc(NC(=O)[C@H](CC2CCCC2)n2cnc(C(F)(F)F)c2)n1 [Example 43, (S)-3-cyclopentyl-N-(1-methyl-1H-pyrazol-3-yl)-2-(4-(trifluoromethyl)-1H-imidazol-1-yl)propanamide]	
> 50		Cc1cnc(NC(=O)[C@H](CC2CCCC2)n2nnc(S(C)(=O)=O)n2)cn1 [Example 81, (S)-3-cyclopentyl-N-(5-methylpyrazin-2-yl)-2-(5-(methylsulfonyl)-2H-tetrazol-2-yl)propanamide]	
5.5	90	Cc1ccc(NC(=O)[C@H](CC2CCCC2)n2ccc(C(F)(F)F)n2)nc1 [Example 69, (S)-3-cyclopentyl-N-(5-methylpyridin-2-yl)-2-(3-(trifluoromethyl)-1H-pyrazol-1-yl)propanamide]	

Structure (SMILES)	EC50 [1] [µM]	Emax [2] [%]	EC50 [µM]
CCOP(=O)(OCC)c1ccc(NC(=O)[C@H](CC2CCCC2)n2cnc(C(F)(F)F)c2)nc1 [Example 59, (S)-diethyl 6-(3-cyclopentyl-2-(4-(trifluoromethyl)-1H-imidazol-1-yl)propanamido)pyridin-3-ylphosphonate]		81	14
